Assay results reported in PMC10644722, “Discovery of inhibitors of protein tyrosine phosphatase 1B contained in a natural products library from Mexican medicinal plants and fungi using a combination of enzymatic and in silico methods**” (Frontiers in Pharmacology, 2023).
Several values for one entry are separate records, joined by “and”; a condition that tells them apart may be missing. Identical values can stand only once. Like-named read-outs stand apart in the source and are kept apart here.

Target: T1, hPTP1B1-400 (Homo sapiens, UniProt P18031)
T1 sequence (P18031 1-400): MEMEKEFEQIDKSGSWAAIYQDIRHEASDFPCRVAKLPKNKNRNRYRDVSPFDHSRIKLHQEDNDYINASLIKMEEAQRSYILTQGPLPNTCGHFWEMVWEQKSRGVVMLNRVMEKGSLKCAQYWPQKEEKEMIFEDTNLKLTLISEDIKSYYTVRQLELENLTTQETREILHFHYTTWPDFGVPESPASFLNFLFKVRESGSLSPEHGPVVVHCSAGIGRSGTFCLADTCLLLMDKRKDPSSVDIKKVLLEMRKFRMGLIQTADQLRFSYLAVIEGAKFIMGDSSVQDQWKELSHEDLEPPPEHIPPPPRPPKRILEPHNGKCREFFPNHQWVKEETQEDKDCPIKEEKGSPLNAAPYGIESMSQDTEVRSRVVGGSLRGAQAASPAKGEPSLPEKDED
Assay: PTP1B inhibition assay (spectrophotometric, 4-nitrophenyl phosphate)
Assay type: biochemical
Details: for ΔA, activity difference between UA and the compound: absolute pIC50 difference against ursolic acid
Experimental: The inhibitory activity was determined as a percentage compared to the blank (Buffer) according to the following equation: %InhibitionPTP1B=1−A405s/A405b×100%, (1) where A405(s) is the ΔA of the sample (At20 − At0), A405(b) is the ΔA of the blank obtained in the same manner as that of the sample. Using the data obtained, the enzyme inhibition curve was plotted, for which the average percentage of inhibition was plotted as a function of the inhibitor concentration.

[1] = Hill1 model fit, Origin 8.0, axis C (mM), read-out: k of the IC50 curve
[2] = enzyme 66 nM, 4-NP 0.125 mM, Tris-HCl pH 6.8, 20 min, room temperature, read-out: IC50
[3] = negative log of the IC50 in Molar
[4] = DoseResp model fit, Origin 8.0, axis C (mM), read-out: LOGx0 of the IC50 curve
[5] = negative log of the IC50 in Molar, read-out: pIC50 (converted)
[6] = IC50 (μM), enzyme 66 nM, 4-NP 0.125 mM, Tris-HCl pH 6.8, 20 min, room temperature
[7] = LOGx0 of the IC50 curve, DoseResp model fit, Origin 8.0, axis C (mM)
[8] = pIC50, negative log of the IC50 in Molar

Compound | IC50 [1] | ΔA, activity difference between UA and the compound | IC50 [2] | pIC50 [3] | IC50 [4] | IC50 [5] | IC50 [6] | IC50 [7] | IC50 [8] | %I (0.02 mM compound) | %I (1 mM compound)
COc1c2c(cc3oc(C)cc(=O)c13)OC(C)(C)[C@H](O)C2 [Compound 94, (+)-5-Methoxyhamaudol] | 0.298 ± 0.146 mM | 1.1 | 0.2985 ± 0.00015 mM | 3.53 |  |  |  |  |  |  | 
CC(C)(O)CCC(=O)[C@](C)(O)[C@H]1[C@H](O)C[C@@]2(C)[C@@H]3CC=C4[C@@H](C[C@H](O)[C@@H](O[C@@H]5O[C@H](CO)[C@@H](O)[C@H](O)[C@H]5O)C4(C)C)[C@]3(C)C(=O)C[C@]12C [Compound 14, 3-O-β-D-Glucopyranosyl-23,24-dihydrocucurbitacin F] |  | 1.2 | 0.3583 ± 1.2e-05 mM | 3.45 | 0.358 ± 0.0127 mM |  |  |  |  |  | 
CC(=O)OC[C@H]1O[C@@H](Oc2cc(O)cc3oc(=O)cc(-c4ccc(O)cc4)c23)[C@H](O)[C@@H](O)[C@H]1O [Compound 18, 6''-O-Acetyl-5-O-β-D-galactopyranosyl-7,4'-dihydroxy-4-phenylcoumarin] | 0.349 ± 0.0341 mM | 1.2 | 0.3486 ± 3e-05 mM | 3.46 |  |  |  |  |  |  | 
COc1cc(=O)oc2c(O[C@@H]3O[C@H](CO)[C@@H](O)[C@H](O)[C@H]3O)ccc(C)c12 [Compound 63, 8-β-D-glucopyranosyloxy-4-methoxy-5-methyl-coumarin] |  | 0.9 | 0.1657 ± 2e-05 mM | 3.78 | 0.166 ± 0.0177 mM |  |  |  |  |  | 
COc1ccc([C@H]2OC[C@H]3[C@@H]2CO[C@@H]3c2ccc3c(c2OC)OCO3)cc1OC [Compound 47, 2'-Methoxykobusin] | 0.125 ± 0.00914 mM | 0.8 | 0.1253 ± 9e-06 mM | 3.90 |  |  |  |  |  |  | 
O=C1C[C@@H](c2ccccc2)Oc2cc(O)cc(O)c21 [Compound 53, Pinocembrin] |  | 1.1 | 0.3062 ± 2e-05 mM |  | 0.306 ± 0.0184 mM | 0.309 mM |  |  |  |  | 
COc1cc(O)cc(CCc2cccc(O)c2)c1 [Compound 34, Batatasin III] |  | 1.1 | 0.2474 ± 7e-05 mM |  | 0.247 ± 0.0675 mM | 0.245 mM |  |  |  |  | 
CCCCCCCCCCCCCCCCCCCCOC(=O)C=Cc1ccc(O)c(OC)c1 [Compound 43, Eicosyl 4-hydroxy-3-methoxy-cinnamate] |  | 1.5 | 0.6483 ± 0.00013 mM |  | 0.648 ± 0.131 mM | 0.646 mM |  |  |  |  | 
C=C1C(=O)O[C@@H]2C[C@@]3(C)CCC=C(C)[C@@H]3C[C@H]12 [Compound 32, Isoalloalantolactone] |  | 1.3 | 0.4432 ± 5e-05 mM | 3.35 | 0.443 ± 0.0513 mM |  |  |  |  |  | 
COc1c(O)cc2cc(OC)c3cc(O)ccc3c2c1OC [Compound 41, Gymnopusin] |  | 1.3 | 0.4314 ± 1e-05 mM |  | 0.431 ± 0.0111 mM | 0.427 mM |  |  |  |  | 
Albolutein C [Compound 98] |  | 0.8 | 0.13 ± 0.0026 mM | 3.89 |  |  |  |  |  |  | 
O=c1c(O[C@@H]2O[C@H](CO)[C@H](O)[C@H](O)[C@H]2O)c(-c2ccc(O)cc2)oc2cc(O)cc(O)c12 [Compound 51, Trifolin] |  | 1.6 | 0.859 ± 0.0003 mM |  | 0.859 ± 0.0259 mM | 0.851 mM |  |  |  |  | 
CN1C(=O)c2ccccc2-n2c(nc3ccccc3c2=O)[C@@H]1Cc1ccccc1 [Compound 40, Benzomalvin A] |  | 1.3 | 0.4242 ± 5e-06 mM |  | 0.424 ± 0.00536 mM | 0.427 mM |  |  |  |  | 
4-Hydroxy-3,3',5-trimetoxybibencyl [Compound 77] | 0.221 ± 0.147 mM | 1.0 | 0.221 ± 0.0001 mM | 3.66 |  |  |  |  |  |  | 
C=CC(C)(C)[C@@]12Nc3ccccc3[C@]1(O)C[C@@]1(O)c3nc4ccccc4c(=O)n3[C@@H](C(C)C)C(=O)N12 [Compound 97, Albolutein B] |  | 0.1 | 0.0258 ± 0.0258 mM | 4.59 |  |  |  |  |  |  | 
O=C(O[C@@H]1Cc2c(O)cc(O)cc2O[C@@H]1c1ccc(O)c(O)c1)c1cc(O)c(O)c(O)c1 [Compound 82, (-)-Epicatechin 3-O-gallate] | 0.142 ± 0.00656 mM | 0.8 | 0.1424 ± 7e-06 mM | 3.85 |  |  |  |  |  |  | 
C=C(C)C(C)(C)CCC(C)C1CCC2(C)C3CCC4C(C)(CCC(O)C4(C)C)C3=CCC12C (stereo not drawn) [Compound 64, 5α-lanosta-24,24-dimethyl-9(11),25-dien-3β-ol] |  | 1.3 | 0.3985 ± 3e-05 mM |  | 0.399 ± 0.025 mM | 0.398 mM |  |  |  |  | 
CC(=CCCC(C)C1CCC2(C)C3=C(CCC12C)C1(C)CCC(=O)C(C)(C)C1CC3)C(=O)O (stereo not shown) [Compound 89, Isomasticadienonic acid] |  | 1.3 and 1.28 | 0.419 ± 1e-05 mM |  | 0.419 ± 0.00938 mM | 0.417 mM |  |  |  |  | 
COc1cc(CCc2ccc(OC)c(OC)c2)cc(OC)c1 [Compound 91, 3,3',4',5-Tetramethoxybibenzyl] |  | 1.3 |  |  |  |  | 0.4195 ± 6e-06 mM | 0.42 ± 0.00629 mM | 0.417 mM |  | 
C=CC(C)(C)C12CC3(O)c4nc5ccccc5c(=O)n4C(C(C)C)C(=O)N3C1N(C(C)=O)c1ccccc12 (stereo not shown) [Compound 96, Albolutein A] |  | -0.1 | 0.0191 ± 0.0014 mM |  |  | 0.0191 mM |  |  |  |  | 
COc1cc(OC2OC(CO)C(O)C(O)C2O)c2c(-c3ccc(O)c(O)c3)cc(=O)oc2c1 [Compound 2, 5-O-(β-D-Glucopyranosyl)-7-methoxy-3'-4'-dihydroxy-4-phenylcoumarin] |  | 0.3 |  |  |  |  | 0.0404 ± 2e-05 mM | 0.0404 ± 0.0232 mM | 0.0407 mM | 42.48 ± 1.16% | 95.13 ± 0.54%
CC(=O)OC(C)(C)/C=C/C(=O)[C@](C)(O)[C@H]1[C@H](O)C[C@@]2(C)[C@@H]3CC=C4[C@@H](C[C@H](O[C@@H]5O[C@H](CO)[C@@H](O)[C@H](O)[C@H]5O)C(=O)C4(C)C)[C@]3(C)C(=O)C[C@]12C [Compound 15, Arvenin I] | 0.564 ± 0.041 mM | 1.4 | 0.5643 ± 4.1e-05 mM | 3.25 |  |  |  |  |  |  | 
CC(C)(O)C(O)C1CC(C2CCC3(C)C4=CCC5C(C)(C)C(=O)CCC5(C)C4CCC23C)C(O)O1 (stereo not shown) [Compound 10, Melianodiol] |  | 0.6 | 0.0921 ± 4e-05 mM |  |  | 0.0912 mM |  |  |  |  | 
CC(=CCCC(C)C1CCC2(C)C3=CCC4C(C)(C)C(=O)CCC4(C)C3CCC12C)C(=O)O (stereo not shown) [Compound 4, Masticadienonic acid] |  | 0.4 | 0.0491 ± 4e-06 mM |  | 0.0491 ± 0.00475 mM | 0.049 mM |  |  |  |  | 
CCC(C=CC(C)C1CCC2C3=CCC4CC(O)CCC4(C)C3CCC21C)C(C)C (stereo not drawn) [Compound 84, α-Spinasterol] |  | 1.7 and 1.66 | 0.9891 ± 0.00014 mM |  | 0.989 ± 0.137 mM | 1 mM |  |  |  |  | 
Oc1cccc(CCc2ccc3c(c2)OCO3)c1 [Compound 25] |  | 1.5 | 0.6621 ± 0.00013 mM | 3.18 | 0.662 ± 0.134 mM |  |  |  |  |  | 
C[C@H]1C(=O)CC[C@@H]2[C@]1(C)CC[C@H]1[C@@]2(C)CC[C@@]2(C)[C@@H]3CC(C)(C)CC[C@]3(C)CC[C@]12C [Compound 56, Friedelin] |  | 1.6 and 1.61 | 0.8878 ± 4e-05 mM |  | 0.888 ± 0.0408 mM | 0.891 mM |  |  |  |  | 
